Patent US8383626B2, “Nitric oxide donors for inducing neurogenesis” (Henry Ford Health System, priority 1999, dated 2013)

How the values were obtained:
Format in all cases: in vivo, rat
[1] = tested on: ischemic rats (stroke); test: Battery of neurological functional tests (NSS, Rotarod, footfault, adhesive removal, body weight) after stroke; conditions: Group 3: iv at one day and two days after stroke; middle aged rats; vs control
Procedure: Administration of nitric oxide donor compound (DETA/NO) to normal and ischemic rats promotes neurogenesis in non-ischemic and ischemic brains. Since then, additional experiments have been performed to test the hypothesis that neurogenesis induced by DETA/NO promotes functional improvement after stroke; the data is provided herewith. Animals were administered (iv/ip) DETA/NO at one day (Group 1) or seven days (Group 2) after induction of stroke and followed by daily injection (ip) of DETA/NO over a period of seven days. Another NO donor compound (SNAP) was administered (iv) to ischemic rats at one day and two days after stroke (Group 3). Young (3 month old) rats were used in Groups 1 and 2. Middle aged rats (10 to 12 months old) were used in Group 3. A battery of neurological functional tests were measured from two days to forty-two days after stroke. These tests included 1) Neurological severity score (NSS) which measures motor, sensory and reflex functions and is similar to the contralateral neglect testing described in humans. The higher the score, the more severe the injury; 2) Rotarod test measures fore and hindlimb motor coordination and balance. Data are presented as percentage of baseline values; 3) Footfault test measures fore and hindlimb motor coordination. The higher the number, the more severe the injury; 4) Adhesive removal test measures sensorimotor impairments. Data are presented as time (seconds). The longer the time period, the more severe the injury; 5) Animal body weight.

[2] = tested on: focal cerebral ischemia (MCA occlusion); test: Infarct volume 28 days after ischemia
Procedure: (§1) The MCA was occluded by placement of an embolus at the origin of the MCA.
(§2) The ischemic rats (n=9) were treated with the same volume of saline as a control group. Rats received intraperitoneal injection of BrdU (50 mg/kg) 24 hours after ischemia and daily intraperitoneal injection of BrdU for 14 consecutive days. All rats were sacrificed 28 days after ischemia.

[3] = tested on: TuJ1 immunoreactive cells; test: TuJ1 immunoreactivity 28 days after ischemia; conditions: 2 or 5 mg/kg; vs contralateral hemisphere and saline treated ischemic rats
Procedure: For BrdU immunostaining, DNA was first denatured by incubating brain sections (6 μm) in 50% formamide 2×SSC at 65° C. for 2 hours and then in 2 N HCL at 37° C. for 30 minutes. Sections were then rinsed with Tris buffer and treated with 1% of H2O2 to block endogenous peroxidase. Sections were incubated with a primary antibody to BrdU (1:100) at room temperature for 1 hour and then incubated with biotinylated secondary antibody (1:200, Vector, Burlingame, Calif.) for 1 hour. Reaction products were detected using 3'3'-diaminobenzidine-tetrahydrochloride (DAB, Sigma). For TuJ1 immunostaining, coronal sections were incubated with the antibody against TuJ1 (1:1000) at 4° C. overnight and then incubated with a biotinylated horse anti-mouse immunoglobulin antibody at room temperature for 30 minutes. Reaction products were detected with DAB. BrdU immunostained sections were digitized using a 40× objective (Olympus BX40) via the MCID computer imaging analysis system (Imaging Research, St. Catharines, Canada). BrdU immunoreactive nuclei were counted on a computer monitor to improve visualization and in one focal plane to avoid over-sampling. Structures were sampled by analyzing entire structures on each section (SVZ and dentate gyrus). […] To examine the effects of […] on neurons, TuJ1 immunoreactivity was measured 28 days after ischemia.

[4] = tested on: progenitor cells in the dentate gyrus and subventricular zone (SVZ); test: Cell proliferation (BrdU immunoreactive cells) in ischemic rats treated with VIAGRA; conditions: 28 days after ischemia, vs saline
Procedure: as §1
For BrdU immunostaining, DNA was first denatured by incubating brain sections (6 μm) in 50% formamide 2×SSC at 65° C. for 2 hours and then in 2 N HCL at 37° C. for 30 minutes. Sections were then rinsed with Tris buffer and treated with 1% of H2O2 to block endogenous peroxidase. Sections were incubated with a primary antibody to BrdU (1:100) at room temperature for 1 hour and then incubated with biotinylated secondary antibody (1:200, Vector, Burlingame, Calif.) for 1 hour. Reaction products were detected using 3′3′-diaminobenzidine-tetrahydrochloride (DAB, Sigma). For TuJ1 immunostaining, coronal sections were incubated with the antibody against TuJ1 (1:1000) at 4° C. overnight and then incubated with a biotinylated horse anti-mouse immunoglobulin antibody at room temperature for 30 minutes. Reaction products were detected with DAB.
BrdU immunostained sections were digitized using a 40× objective (Olympus BX40) via the MCID computer imaging analysis system (Imaging Research, St. Catharines, Canada). BrdU immunoreactive nuclei were counted on a computer monitor to improve visualization and in one focal plane to avoid over-sampling. Structures were sampled by analyzing entire structures on each section (SVZ and dentate gyrus). All BrdU immunoreactive-positive nuclei in these areas are presented as the number of the BrdU immunoreactive cells/mm^2 and data shown are mean±SE. Density for the selected several sections was averaged to obtain a mean density value for each animal. For measurements of TuJ1 immunoreactivity, a threshold was applied to each digitized image (628×480 μm^2) for ensuring that the numbers of TuJ1 immunostained pixels were representative of the original TuJ1 immunoreactive patterns. All objects with fewer than 5 pixels were eliminated from measurements. Data are presented as a percentage of area, in which the number of TuJ1 immunostained pixels was divided by the total number of pixels in the area (628×480 μm^2). […]

[5] = tested on: ischemic rats (MCA occlusion); test: Behavior tests (foot-fault, adhesive removal) and body weight after MCA occlusion
Procedure: as §1, §2

CC(=O)N[C@H](C(=O)O)C(C)(C)SN=O (racemic) [SNAP, S-nitroso-N-acetylpenicillamine]
motor and sensorimotor functions (Rotarod, footfault, Adhesive removal tests) [1]: significant improvements

CCCc1nn(C)c2c(=O)[nH]c(-c3cc(S(=O)(=O)N4CCN(C)CC4)ccc3OCC)nc12 [VIAGRA™, sildenafil]
infarct volume 28 days after ischemia ([2]; 2 mg/kg starting at 24 hours, vs control group): no significant differences
infarct volumes measured 28 days after ischemia ([2]; 2 or 5 mg/kg initiated at 2 hours, vs saline): not significantly different
% of infarct volume at 28 days (Mean ± SE) ([2]; group 1: 2 h after MCAo, 2 mg/kg oral × 7days): 35.15 ± 3.25%
% of infarct volume at 28 days (Mean ± SE) ([2]; group 2: 2 h after MCAo, 5 mg/kg oral × 7days): 37.67 ± 4.33%
% of infarct volume at 28 days (Mean ± SE) ([2]; group 3: 24 h after MCAo, 2 mg/kg oral × 7days): 35.52 ± 0.93%
TuJ1 immunoreactive cells in the ipsilateral SVZ and striatum [3]: significantly (p<0.05) increased
numbers of BrdU immunoreactive cells in the ipsilateral SVZ ([4]; 2 mg/kg): significantly (p<0.05) increased
numbers of BrdU immunoreactive cells in the SVZ of both hemispheres ([4]; 5 mg/kg): significantly (p<0.05) increased
numbers of BrdU immunoreactive cells in the dentate gyrus of both hemispheres ([4]; oral 2 or 5 mg/kg initiated at 2 or 24 hours after stroke): significant (p<0.05) increases
animal body weight loss ([5]; 2 mg/kg or 5 mg/kg initiated at 2 hours): significantly reduced
performance on the foot-fault test and the adhesive removal test ([5]; 2 mg/kg or 5 mg/kg initiated at 2 hours of onset of ischemia, during 2 to 21 days, vs saline): significantly improved performance
foot-fault and adhesive removal tests ([5]; 2 mg/kg starting at 24 hours after onset of ischemia, during 7 to 28 days): significant (p<0.05) improvements
body weight loss ([5]; 2 mg/kg starting at 24 hours, at 4, 7 14, 21 and 28 days after ischemia): significant (p<0.05) reduction
